Reference: ChEMBL document CHEMBL3227941, “3-Substituted adenines. In vitro enzyme inhibition and antiviral activity” (J Med Chem, 1979)

What was measured:
[1] = Cytotoxicity against Vaccinia virus infected African green monkey BSC1 cells at 100 ug/ml; format: cell-based; conditions: chlorocebus aethiops, bsc-1
[2] = target: T1, Dopamine beta-hydroxylase (Bos taurus, UniProt P15101); assay: Inhibition of bovine adrenal medullae dopamine-beta-hydroxylase; set-up: species or system Adrenal medulla; conditions: read-out: I50 (converted)
T1 sequence (P15101 whole entry): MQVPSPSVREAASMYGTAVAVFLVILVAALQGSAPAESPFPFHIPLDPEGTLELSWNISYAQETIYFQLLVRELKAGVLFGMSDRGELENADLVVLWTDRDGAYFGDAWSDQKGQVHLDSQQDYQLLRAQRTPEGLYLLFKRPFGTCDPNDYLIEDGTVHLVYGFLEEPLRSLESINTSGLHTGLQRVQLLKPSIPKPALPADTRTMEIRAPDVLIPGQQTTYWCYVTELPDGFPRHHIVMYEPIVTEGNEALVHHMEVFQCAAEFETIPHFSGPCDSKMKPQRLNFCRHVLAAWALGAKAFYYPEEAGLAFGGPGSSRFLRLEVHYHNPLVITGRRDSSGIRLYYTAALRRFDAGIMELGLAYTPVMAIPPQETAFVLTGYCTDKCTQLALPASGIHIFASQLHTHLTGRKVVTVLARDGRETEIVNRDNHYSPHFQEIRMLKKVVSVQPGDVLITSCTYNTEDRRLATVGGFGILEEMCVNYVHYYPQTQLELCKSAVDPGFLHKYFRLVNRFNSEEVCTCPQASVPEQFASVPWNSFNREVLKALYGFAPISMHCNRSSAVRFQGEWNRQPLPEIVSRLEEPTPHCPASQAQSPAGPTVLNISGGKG

Human alphaherpesvirus 1 [3] = assay: Antiviral activity against HSV1 infected in African green monkey BSC-1 cells assessed as inhibition of virus multiplication at 50 ug/ml after 96 hrs by plaque reduction assay; format: functional; conditions: Human alphaherpesvirus 1, BSC-1, 96 h
Human alphaherpesvirus 1 [4] = assay: Antiviral activity against HSV1 infected in African green monkey BSC-1 cells assessed as inhibition of virus multiplication at 25 ug/ml after 96 hrs by plaque reduction assay; format: functional; conditions: Human alphaherpesvirus 1, BSC-1, 96 h
Human alphaherpesvirus 1 [5] = assay: Antiviral activity against HSV1 infected in African green monkey BSC-1 cells assessed as inhibition of virus multiplication at 12 ug/ml after 96 hrs by plaque reduction assay; format: functional; conditions: Human alphaherpesvirus 1, BSC-1, 96 h
Human alphaherpesvirus 1 [6] = assay: Antiviral activity against HSV1 infected in African green monkey BSC-1 cells assessed as inhibition of virus multiplication at 6 ug/ml after 96 hrs by plaque reduction assay; format: functional; conditions: Human alphaherpesvirus 1, BSC-1, 96 h
Vaccinia virus [7] = assay: Antiviral activity against Vaccinia virus infected in African green monkey BSC-1 cells assessed as inhibition of virus multiplication at 50 ug/ml after 96 hrs by plaque reduction assay; format: functional; conditions: Orthopoxvirus vaccinia, BSC-1, 96 h
Vaccinia virus [8] = assay: Antiviral activity against Vaccinia virus infected in African green monkey BSC-1 cells assessed as inhibition of virus multiplication at 25 ug/ml after 96 hrs by plaque reduction assay; format: functional; conditions: Orthopoxvirus vaccinia, BSC-1, 96 h
Vaccinia virus [9] = assay: Antiviral activity against Vaccinia virus infected in African green monkey BSC-1 cells assessed as inhibition of virus multiplication at 12 ug/ml after 96 hrs by plaque reduction assay; format: functional; conditions: Orthopoxvirus vaccinia, BSC-1, 96 h
[10] = Cytotoxicity against HSV1 infected African green monkey BSC1 cells at 50 ug/ml; format: cell-based; conditions: chlorocebus aethiops, bsc-1
[11] = Cytotoxicity against Vaccinia virus infected African green monkey BSC1 cells at 50 ug/ml; format: cell-based; conditions: chlorocebus aethiops, bsc-1
[12] = Cytotoxicity against Vaccinia virus infected African green monkey BSC1 cells at 25 ug/ml; format: cell-based; conditions: chlorocebus aethiops, bsc-1
Vaccinia virus [13] = assay: Antiviral activity against Vaccinia virus infected in African green monkey BSC-1 cells assessed as inhibition of virus multiplication at 6 ug/ml after 96 hrs by plaque reduction assay; format: functional; conditions: Orthopoxvirus vaccinia, BSC-1, 96 h
Vaccinia virus [14] = assay: Antiviral activity against Vaccinia virus infected in African green monkey BSC-1 cells assessed as inhibition of virus multiplication at 3 ug/ml after 96 hrs by plaque reduction assay; format: functional; conditions: Orthopoxvirus vaccinia, BSC-1, 96 h
Vaccinia virus [15] = assay: Antiviral activity against Vaccinia virus infected in African green monkey BSC-1 cells assessed as inhibition of virus multiplication at 100 ug/ml after 96 hrs by plaque reduction assay; format: functional; conditions: Orthopoxvirus vaccinia, BSC-1, 96 h

Row | Structure (SMILES) | Activity [1] | IC50 [2] | inhibition at 50 µg/mL (Human alphaherpesvirus 1 [3]) | inhibition at 25 µg/mL (Human alphaherpesvirus 1 [4]) | inhibition at 12 µg/mL (Human alphaherpesvirus 1 [5]) | inhibition at 6 µg/mL (Human alphaherpesvirus 1 [6]) | inhibition at 50 µg/mL (Vaccinia virus [7]) | inhibition at 25 µg/mL (Vaccinia virus [8]) | inhibition at 12 µg/mL (Vaccinia virus [9]) | Activity [10] | Activity [11] | Activity [12] | inhibition at 6 µg/mL (Vaccinia virus [13]) | inhibition at 3 µg/mL (Vaccinia virus [14]) | inhibition at 100 µg/mL (Vaccinia virus [15])
1 | Cc1ccc(Cn2cnc(N)c3ncnc2-3)cc1 | Toxic | 83.6 µM | 0% | 0% | 0% | 0% | 10% | 8% | 0% | – | – | – | – | – | –
2 | Nc1ncn(Cc2ccc(Cl)c(Cl)c2)c2ncnc1-2 | Toxic | 6.8 µM | – | 27% | 0% | 0% | – | – | 100% | Toxic | Toxic | Toxic | 87% | 47% | –
3 | CCCCCCn1cnc(N)c2ncnc1-2 | Toxic | 4.56 µM | 16% | 0% | 0% | 0% | 100% | 77% | 27% | – | – | – | – | – | –
4 | Nc1ncn(Cc2cccc(C(F)(F)F)c2)c2ncnc1-2 | – | 68.2 µM | – | – | – | – | – | – | – | – | – | – | – | – | –
5 | Cc1ccccc1Cn1cnc(N)c2ncnc1-2 | Toxic | 836 µM | 30% | 0% | 0% | 0% | 0% | 0% | 0% | – | – | – | – | – | –
6 | Nc1ncn(Cc2ccccc2Cl)c2ncnc1-2 | Toxic | 770 µM | 100% | 100% | 42% | 0% | 100% | 0% | 0% | – | – | – | 0% | 0% | –
7 | Nc1ncn(Cc2ccco2)c2ncnc1-2 | – | – | 0% | 0% | 0% | 0% | 0% | 0% | – | – | – | – | – | – | 0%
8 | Nc1ncn(CC2CCCCC2)c2ncnc1-2 | – | 8.65 µM | 0% | 0% | 0% | 0% | 7% | 0% | 0% | – | – | – | – | – | –
9 | Cc1cccc(Cn2cnc(N)c3ncnc2-3)c1 | Toxic | 83.6 µM | 9% | 0% | 0% | 0% | 0% | 0% | 0% | – | – | – | – | – | –
10 | CCn1cnc(N)c2ncnc1-2 [3-ETHYLADENINE] | – | > 1230 µM | 0% | 0% | 0% | 0% | 0% | 0% | 0% | – | – | – | 0% | – | 0%
11 | CC(C)CCn1cnc(N)c2ncnc1-2 | – | 974 µM | 27% | 0% | 0% | 0% | 7% | 7% | 0% | – | – | – | 0% | – | 8%
12 | CCCn1cnc(N)c2ncnc1-2 [3-PROPYLADENINE] | – | 1130 µM | 0% | 0% | 0% | 0% | 0% | 0% | 0% | – | – | – | 0% | – | 0%
13 | CCCCCn1cnc(N)c2ncnc1-2 | – | 2.44 µM | 3% | 0% | 0% | 0% | 72% | 35% | 33% | – | – | – | – | – | 96%
14 | Nc1ncn(Cc2ccc(Cl)cc2Cl)c2ncnc1-2 | Toxic | 680 µM | – | 20% | 0% | 0% | – | – | 0% | Toxic | Toxic | Toxic | 0% | – | –
15 | CCCCn1cnc(N)c2ncnc1-2 [3-BUTYLADENINE] | – | 105 µM | 0% | 0% | 0% | 0% | 0% | 0% | 0% | – | – | – | – | – | 1%
16 | Nc1ncn(Cc2cccc(Cl)c2)c2ncnc1-2 | – | 7.7 µM | 45% | 0% | 0% | 0% | 37% | 16% | 0% | – | – | – | 0% | – | 100%
17 | Nc1ncn(Cc2ccc(Cl)cc2)c2ncnc1-2 | Toxic | 77 µM | 15% | 0% | 0% | 0% | 100% | 70% | 51% | – | – | – | – | – | –
18 | Nc1ncn(Cc2ccccc2)c2ncnc1-2 [3-BENZYLADENINE] | – | 8.88 µM | 0% | 0% | 0% | 0% | 3% | 0% | 0% | – | – | – | – | – | 3%
